BindingDB's records for patent US20240018122 (Chiesi Farmaceutici, 2024)

Target: T1, TGF-beta receptor type-1 (Homo sapiens, UniProt P36897)
T1 sequence (P36897 whole entry): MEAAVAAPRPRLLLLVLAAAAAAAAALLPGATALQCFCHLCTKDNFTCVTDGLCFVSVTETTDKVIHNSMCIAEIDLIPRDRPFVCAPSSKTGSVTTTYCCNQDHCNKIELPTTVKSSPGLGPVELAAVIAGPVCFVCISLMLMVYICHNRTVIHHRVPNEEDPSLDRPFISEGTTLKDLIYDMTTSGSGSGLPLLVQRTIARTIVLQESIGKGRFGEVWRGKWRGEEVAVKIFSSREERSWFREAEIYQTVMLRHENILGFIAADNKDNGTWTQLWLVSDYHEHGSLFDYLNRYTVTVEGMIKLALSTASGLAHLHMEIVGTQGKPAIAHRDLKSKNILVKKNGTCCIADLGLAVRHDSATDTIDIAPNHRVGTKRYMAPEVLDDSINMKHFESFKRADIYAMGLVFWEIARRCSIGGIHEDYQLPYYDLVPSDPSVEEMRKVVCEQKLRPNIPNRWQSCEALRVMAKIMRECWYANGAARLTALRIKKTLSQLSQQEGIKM
Test: In vitro Assay
Experimental: The enzymatic activity of compounds of the present invention was monitored measuring the formation of ADP using the ADP-GLO Kinases assay. Following the incubation of the purified enzyme, a substrate and ATP, the produced ADP was converted into ATP, which in turn was converted into light by Ultra-Glo Luciferase. The luminescent signal positively correlated with ADP amount and kinase activity.

| Structure (SMILES) | IC50 [nM] |
| --- | --- |
| Cc1nnc(-c2cc(Cl)ccc2F)cc1Nc1ccnc(NC(=O)C2CC2)c1 [US20240018122, Example 15] | < 1 |
| CN1CCN(CCN(C)C(=O)c2cc3c(Nc4cnnc(-c5cc(Cl)ccc5F)c4)ccnc3[nH]2)CC1 [US20240018122, Example 40] | < 1 |
| Cc1nnc(-c2cc(Cl)ccc2F)cc1Nc1ccnc(NC(=O)CCN2CCN(CCS(C)(=O)=O)CC2)c1 [US20240018122, Example 83] | < 1 |
| OCCC(CCO)N1CCN(CCOc2ccc3c(Nc4cnnc(-c5cc(Cl)ccc5F)c4)ccnc3c2)CC1 [US20240018122, Example 86] | < 1 |
| Cc1nnc(-c2cc(Cl)ccc2F)cc1Nc1ccnc(NC(=O)CCN2CCNC(C(=O)O)C2)c1 (configuration not stated) [US20240018122, Example 92] | < 1 |
| Cc1nnc(-c2cc(Cl)ccc2F)cc1Nc1ccnc(NC(=O)CCN2CC[N+](C)(C)CC2)c1 [US20240018122, Example 110] | < 1 |
| Cc1nnc(-c2cc(Cl)ccc2F)cc1Nc1ccnc(NC(=O)NCC2CCN(C)CC2)c1 [US20240018122, Example 142] | < 1 |
